In one experiment the test system is SARS-CoV-2-NLuc. Nature of the experiment: microbe, parasite or virus in culture. The format is cell-based, SARS Coronavirus 2.
For experiment [1], the target named is recombinant SARS-CoV-2 Main protease (Mpro) (Severe acute respiratory syndrome coronavirus 2 (2019-nCoV) (SARS-CoV-2), UniProt P0DTD1). Nature of the experiment: Cov Mpro Biochemical IC50 Assay. As to conditions: recombinant SARS-CoV-2 Mpro 7.5 nM, fluorogenic peptide substrate 40 μM; read-out: MPro IC50.
Where [2] appears, read: Severe acute respiratory syndrome coronavirus, 48 h, read-out: MPro EC50.
[3] abbreviates: Severe acute respiratory syndrome coronavirus, 48 h; read-out: MPro EC50.

Read-outs that look alike come from different tables or passages of the source. A value given as a limit tells only on which side of the number the result lay.

As to `COc1cc(C#N)c(-c2cc3c(s2)c(=O)n(-c2cncc4cnn(C)c24)c(=O)n3CCC#N)cc1F` [Example 795], in the experiment on SARS-CoV-2-NLuc (setting [2]), the half-maximal effective concentration (EC50) is 86.7 nM. For the same compound, the half-maximal inhibitory concentration (IC50) in experiment [1] stood at 20 nM.

For `Cn1nnc2cncc(-n3c(=O)c4sc(-c5cc(F)c(F)cc5Cl)cc4n(CCC#N)c3=O)c21` [Example 796], the EC50 in the experiment with SARS-CoV-2-NLuc (setting [3]) is 124 nM. For the same compound, the IC50 in experiment [1] turned out to be 40.5 nM.

Turning to `Cc1c2c(-n3c(=O)c4sc(-c5ccc(F)cc5Cl)cc4n(CCC#N)c3=O)cncc2nn1C` [Example 797, 3-(6-(2-chloro-4-fluorophenyl)-3-(2,3-dimethyl-2H-pyrazolo[3,4-c]pyridin-4-yl)-2,4-dioxo-3,4-dihydrothieno[3,2-d]pyrimidin-1(2H)-yl)propanenitrile], the EC50 in the experiment on SARS-CoV-2-NLuc (setting [2]) amounted to 108 nM. Besides, the IC50 in experiment [1] stood at 34.6 nM.

As for `Cc1c2c(-n3c(=O)c4sc(-c5cc(F)c(F)cc5Cl)cc4n(CCC#N)c3=O)cncc2nn1C` [Example 798], the concentration for a half-maximal effect (EC50) in the experiment with SARS-CoV-2-NLuc (setting [3]) came out at 137 nM. Moreover, the IC50 in experiment [1] came out at 38.7 nM.

As for `COc1cc(-c2cc3c(s2)c(=O)n(-c2cccnc2)c(=O)n3CCC#N)c(C#N)cc1F` [Example 799], the concentration for a half-maximal effect (EC50) in the experiment on SARS-CoV-2-NLuc (setting [3]) amounted to 42.9 nM. In experiment [1], the IC50 stood at 10.3 nM.

For the compound `N#CCCn1c(=O)n(-c2cccnc2)c(=O)c2sc(-c3ccc(F)cc3Cl)cc21` [Example 800], the EC50 in the experiment with SARS-CoV-2-NLuc (setting [3]) amounted to 114 nM. Besides, the IC50 in experiment [1] stood at 32.6 nM.

`N#CCCn1c(=O)n(-c2cccnc2)c(=O)c2sc(-c3ccccc3C#N)cc21` [Example 801]: the half-maximal effective concentration (EC50) in the experiment with SARS-CoV-2-NLuc (setting [3]) stood at 231 nM. For the same compound, in experiment [1], the half-maximal inhibitory concentration (IC50) worked out at 60.6 nM.

As to `Cc1cncc(-n2c(=O)c3sc(-c4ccccc4C#N)cc3n(CC3(C#N)CC3)c2=O)c1` [Example 802], the EC50 in the experiment with SARS-CoV-2-NLuc (setting [3]) is 7.09 nM. Further, in experiment [1], the IC50 was found to be 3.02 nM.

On to `N#CCCn1c(=O)n(-c2cccnc2)c(=O)c2sc(-c3cc(F)c(F)cc3Cl)cc21` [Example 803], for which the EC50 in the experiment on SARS-CoV-2-NLuc (setting [3]) came to 91.5 nM. Moreover, the IC50 in experiment [1] worked out at 25.9 nM.

For the compound `N#CCCn1c(=O)n(-c2cccnc2)c(=O)c2sc(-c3ccccc3Cl)cc21` [Example 804], in the experiment on SARS-CoV-2-NLuc (setting [3]), the EC50 worked out at 45 nM. Further, the IC50 in experiment [1] came out at 14 nM.

For the compound `Cc1noc(C)c1-c1cc2[nH]c(=O)n(-c3cncc4cnn(C)c34)c(=O)c2s1` [Example 805], the EC50 in the experiment on SARS-CoV-2-NLuc (setting [3]) is over 1000 nM. Also, in experiment [1], the half-inhibitory concentration (IC50) was determined as 701 nM.

`COc1cc(-c2cc3c(s2)c(=O)n(-c2cncc(Cl)c2C)c(=O)n3CCC#N)c(C#N)cc1F` [Example 806]: in the experiment on SARS-CoV-2-NLuc (setting [3]), the half-maximal effective concentration (EC50) was found to be 6.99 nM. Moreover, in experiment [1], the IC50 was determined as 5.15 nM.

Consider `Cc1c(Cl)cncc1-n1c(=O)c2sc(-c3ccc(F)cc3Cl)cc2n(CCC#N)c1=O` [Example 807], for which, in the experiment on SARS-CoV-2-NLuc (setting [2]), the EC50 was determined as 35 nM. The half-maximal inhibitory concentration (IC50) in experiment [1] was 20.6 nM.

As to `Cc1c(Cl)cncc1-n1c(=O)c2sc(-c3ccc(F)cc3C#N)cc2n(CCC#N)c1=O` [Example 808], the EC50 in the experiment with SARS-CoV-2-NLuc (setting [3]) worked out at 183 nM. Moreover, in experiment [1], the IC50 came out at 74.5 nM.

Regarding `Cc1ccc(C#N)cc1-c1cc2c(s1)c(=O)n(-c1cncc3cnn(C)c13)c(=O)n2CCC#N` [Example 809], in the experiment with SARS-CoV-2-NLuc (setting [2]), the EC50 turned out to be 200 nM. Moreover, in experiment [1], the half-maximal inhibitory concentration (IC50) was determined as 54.2 nM.

Take `Cc1ccc(C#N)cc1-c1cc2c(s1)c(=O)n(-c1cncc3ccccc13)c(=O)n2CCC#N` [Example 810]: the EC50 in the experiment with SARS-CoV-2-NLuc (setting [3]) is 86.9 nM. For the same compound, the IC50 in experiment [1] came out at 19.8 nM.

Regarding `Cn1ncc2cncc(-n3c(=O)c4sc(-c5cc(C#N)ccc5Cl)cc4n(CCC#N)c3=O)c21` [Example 811], the half-maximal effective concentration (EC50) in the experiment on SARS-CoV-2-NLuc (setting [2]) was 53.5 nM. Moreover, the IC50 in experiment [1] stood at 13.2 nM.

Regarding `COc1cc(-c2cc3c(s2)c(=O)n(-c2cc(C)cnn2)c(=O)n3CCC#N)c(C#N)cc1F` [Example 812], in the experiment with SARS-CoV-2-NLuc (setting [3]), the EC50 stood at 89 nM. Besides, the half-inhibitory concentration (IC50) in experiment [1] was 8.87 nM.

In the case of `Cc1cnnc(-n2c(=O)c3sc(-c4ccccc4C#N)cc3n(CCC#N)c2=O)c1` [Example 813], the EC50 in the experiment with SARS-CoV-2-NLuc (setting [3]) came out at 362 nM. Besides, the half-inhibitory concentration (IC50) in experiment [1] came out at 32.5 nM.

Turning to `COc1cncc(-n2c(=O)c3sc(-c4ccccc4C#N)cc3n(CCC#N)c2=O)c1` [Example 814], in the experiment on SARS-CoV-2-NLuc (setting [3]), the concentration for a half-maximal effect (EC50) is 134 nM. Further, the concentration for half-maximal inhibition (IC50) in experiment [1] was 44.6 nM.

In the case of `COc1cnc(Cl)c(-c2cc3c(s2)c(=O)n(-c2cncc(C(F)(F)F)c2)c(=O)n3CCC#N)c1` [Example 815], in the experiment on SARS-CoV-2-NLuc (setting [3]), the 50% effective concentration (EC50) was determined as 180 nM. In experiment [1], the IC50 was 52.4 nM.

On to `N#CCCn1c(=O)n(-c2cncc(OC(F)F)c2)c(=O)c2sc(-c3ccccc3C#N)cc21` [Example 816], for which the concentration for a half-maximal effect (EC50) in the experiment on SARS-CoV-2-NLuc (setting [3]) was 342 nM. Besides, the half-inhibitory concentration (IC50) in experiment [1] worked out at 58.1 nM.

`N#CCCn1c(=O)n(-c2cncc(N3CCOCC3)c2)c(=O)c2sc(-c3ccccc3C#N)cc21` [Example 817]: the concentration for a half-maximal effect (EC50) with SARS-CoV-2-NLuc (setting [3]) is over 1000 nM. Also, the IC50 in experiment [1] was over 1000 nM.

For the compound `N#CCCn1c(=O)n(-c2cncc3ccccc23)c(=O)c2sc(-c3ccccc3Cl)cc21` [Example 818, 3-(6-(2-chlorophenyl)-3-(isoquinolin-4-yl)-2,4-dioxo-3,4-dihydrothieno[3,2-d]pyrimidin-1(2H)-yl)propanenitrile], in the experiment on SARS-CoV-2-NLuc (setting [2]), the EC50 worked out at 6.21 nM. Further, in experiment [1], the 50% inhibitory concentration (IC50) was found to be 7.61 nM.

On to `N#CCCn1c(=O)n(-c2cncc3ccccc23)c(=O)c2sc(-c3ccccc3C#N)cc21` [Example 819, 2-(1-(2-cyanoethyl)-3-(isoquinolin-4-yl)-2,4-dioxo-1,2,3,4-tetrahydrothieno[3,2-d]pyrimidin-6-yl)benzonitrile], for which, in the experiment on SARS-CoV-2-NLuc (setting [2]), the EC50 worked out at 11.3 nM. In experiment [1], the half-inhibitory concentration (IC50) was 10.3 nM.

Consider `COc1cccc(C#N)c1-c1cc2c(s1)c(=O)n(-c1cncc3ccccc13)c(=O)n2CCC#N` [Example 820], for which the EC50 in the experiment on SARS-CoV-2-NLuc (setting [2]) is 32.9 nM. The 50% inhibitory concentration (IC50) in experiment [1] is 5.73 nM.

As for `N#CCCn1c(=O)n(-c2cncc3ccccc23)c(=O)c2sc(-c3cc(Cl)ccc3C#N)cc21` [Example 821], the concentration giving a half-maximal response (EC50) in the experiment with SARS-CoV-2-NLuc (setting [2]) turned out to be 11.5 nM. In experiment [1], the IC50 came out at 6.75 nM.

For `Cn1ncc2cncc(-n3c(=O)c4sc(-c5cc(C(F)(F)F)ccc5C#N)cc4n(CCC#N)c3=O)c21` [Example 822], the EC50 in the experiment on SARS-CoV-2-NLuc (setting [3]) turned out to be 346 nM. The IC50 in experiment [1] came to 96.4 nM.

In the case of `Cc1cc(-c2cc3c(s2)c(=O)n(-c2cncc4ccccc24)c(=O)n3CCC#N)c(C#N)cc1F` [Example 823], in the experiment on SARS-CoV-2-NLuc (setting [2]), the 50% effective concentration (EC50) came to 25.7 nM. Moreover, the IC50 in experiment [1] was determined as 16.3 nM.

On to `Cn1ncc2cncc(-n3c(=O)c4sc(-c5ccc(Cl)cc5C#N)cc4n(CCC#N)c3=O)c21` [Example 824], for which the concentration giving a half-maximal response (EC50) with SARS-CoV-2-NLuc (setting [3]) stood at 79.9 nM. The IC50 in experiment [1] is 22.5 nM.

For the compound `Cc1cc(-n2c(=O)c3sc(-c4ccccc4Cl)cc3n(CCC#N)c2=O)cnc1F` [Example 825], the EC50 in the experiment with SARS-CoV-2-NLuc (setting [2]) was found to be 77 nM. Moreover, the IC50 in experiment [1] is 33.9 nM.

In the case of `N#CCCn1c(=O)n(-c2cncc3ccccc23)c(=O)c2sc(-c3cc(F)c(F)cc3Cl)cc21` [Example 826], the EC50 in the experiment on SARS-CoV-2-NLuc (setting [2]) is 23.9 nM. Further, the half-inhibitory concentration (IC50) in experiment [1] was found to be 8.26 nM.

Turning to `N#CCCn1c(=O)n(-c2cncc3ccccc23)c(=O)c2sc(-c3ccc(F)cc3Cl)cc21` [Example 827], the EC50 in the experiment on SARS-CoV-2-NLuc (setting [2]) turned out to be 10.4 nM. For the same compound, the 50% inhibitory concentration (IC50) in experiment [1] was 10.2 nM.

Take `N#CCCn1c(=O)n(-c2cnccn2)c(=O)c2sc(-c3ccccc3Cl)cc21` [Example 828]: in the experiment with SARS-CoV-2-NLuc (setting [2]), the EC50 was determined as 458 nM. For the same compound, the IC50 in experiment [1] was 94.1 nM.

For the compound `N#CCCn1c(=O)n(-c2cnccn2)c(=O)c2sc(-c3ccc(F)cc3C#N)cc21` [Example 829], in the experiment with SARS-CoV-2-NLuc (setting [3]), the EC50 is over 1000 nM. In addition, the IC50 in experiment [1] is 420 nM.

As for `N#CCCn1c(=O)n(-c2cnccn2)c(=O)c2sc(-c3ccccc3C#N)cc21` [Example 830], the EC50 with SARS-CoV-2-NLuc (setting [3]) is over 1000 nM. Moreover, in experiment [1], the concentration for half-maximal inhibition (IC50) stood at 350 nM.

With `N#CCCn1c(=O)n(-c2cncc3ccccc23)c(=O)c2sc(-c3cc(F)ccc3Cl)cc21` [Example 831], the concentration giving a half-maximal response (EC50) in the experiment with SARS-CoV-2-NLuc (setting [2]) was 7.19 nM. For the same compound, in experiment [1], the half-maximal inhibitory concentration (IC50) amounted to 8.53 nM.

The values are drawn from patent publication US20240116946A1 (Gilead Sciences, Inc., priority 2022, published 2024).
